Test results from ChEMBL document CHEMBL4007384, “Synthesis and optimization of furano[3,2-d]pyrimidines as selective spleen tyrosine kinase (Syk) inhibitors” (Bioorg Med Chem Lett, 2016).

Key:
[1] = target: BDNF/NT-3 growth factors receptor (Homo sapiens, UniProt Q16620); assay: Inhibition of TrkB (unknown origin) after 60 mins by TR-FRET assay
[2] = target: Casein kinase I isoform alpha (Homo sapiens, UniProt P48729); assay: Inhibition of CK1alpha1 (unknown origin) after 60 mins by TR-FRET assay
[3] = target: Vascular endothelial growth factor receptor 1 (Homo sapiens, UniProt P17948); assay: Inhibition of Flt1(unknown origin) after 60 mins by TR-FRET assay
[4] = Inhibition of PKA (unknown origin) after 60 mins by TR-FRET assay
[5] = target: Platelet-derived growth factor receptor beta (Homo sapiens, UniProt P09619); assay: Inhibition of PDGFRB (unknown origin) after 60 mins by TR-FRET assay
[6] = target: Aurora kinase B (Homo sapiens, UniProt Q96GD4); assay: Inhibition of AURKB (unknown origin) after 60 mins by TR-FRET assay
[7] = target: Death-associated protein kinase 3 (Homo sapiens, UniProt O43293); assay: Inhibition of ZIPK (unknown origin) after 60 mins by TR-FRET assay
[8] = target: Glycogen synthase kinase-3 beta (Homo sapiens, UniProt P49841); assay: Inhibition of GSK3B (unknown origin) after 60 mins by TR-FRET assay
[9] = target: Dual specificity mitogen-activated protein kinase kinase 1 (Homo sapiens, UniProt Q02750); assay: Inhibition of MEK1 (unknown origin) after 60 mins by TR-FRET assay
[10] = target: Rho-associated protein kinase 1 (Homo sapiens, UniProt Q13464); assay: Inhibition of ROCK1(unknown origin) after 60 mins by TR-FRET assay
[11] = target: Calcium/calmodulin-dependent protein kinase type II subunit alpha (Homo sapiens, UniProt Q9UQM7); assay: Inhibition of human CAMK2A (unknown origin) after 60 mins by TR-FRET assay
[12] = target: Platelet-derived growth factor receptor alpha (Homo sapiens, UniProt P16234); assay: Inhibition of PDGFRA (unknown origin) after 60 mins by TR-FRET assay
[13] = target: Glycogen synthase kinase-3 alpha (Homo sapiens, UniProt P49840); assay: Inhibition of GSK3A (unknown origin) after 60 mins by TR-FRET assay
[14] = target: T1, Aurora kinase A (Homo sapiens, UniProt O14965); assay: Inhibition of AURKA (unknown origin) after 60 mins by TR-FRET assay
T1 sequence (O14965 whole entry): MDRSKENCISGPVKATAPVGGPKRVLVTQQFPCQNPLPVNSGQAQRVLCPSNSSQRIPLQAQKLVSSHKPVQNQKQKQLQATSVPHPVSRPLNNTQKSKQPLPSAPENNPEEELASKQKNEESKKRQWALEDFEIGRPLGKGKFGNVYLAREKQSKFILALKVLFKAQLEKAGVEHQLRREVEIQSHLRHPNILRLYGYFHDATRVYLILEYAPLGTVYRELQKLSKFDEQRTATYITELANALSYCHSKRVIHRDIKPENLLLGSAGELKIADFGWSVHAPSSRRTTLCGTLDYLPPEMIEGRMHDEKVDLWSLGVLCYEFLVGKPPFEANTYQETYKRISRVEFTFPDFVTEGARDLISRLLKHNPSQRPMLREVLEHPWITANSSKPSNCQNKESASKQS

[15] = target: Protein kinase C theta type (Homo sapiens, UniProt Q04759); assay: Inhibition of PKCtheta (unknown origin) after 60 mins by TR-FRET assay
[16] = target: T2, Serine/threonine-protein kinase Nek2 (Homo sapiens, UniProt P51955); assay: Inhibition of NEK2 (unknown origin) after 60 mins by TR-FRET assay
T2 sequence (P51955 whole entry): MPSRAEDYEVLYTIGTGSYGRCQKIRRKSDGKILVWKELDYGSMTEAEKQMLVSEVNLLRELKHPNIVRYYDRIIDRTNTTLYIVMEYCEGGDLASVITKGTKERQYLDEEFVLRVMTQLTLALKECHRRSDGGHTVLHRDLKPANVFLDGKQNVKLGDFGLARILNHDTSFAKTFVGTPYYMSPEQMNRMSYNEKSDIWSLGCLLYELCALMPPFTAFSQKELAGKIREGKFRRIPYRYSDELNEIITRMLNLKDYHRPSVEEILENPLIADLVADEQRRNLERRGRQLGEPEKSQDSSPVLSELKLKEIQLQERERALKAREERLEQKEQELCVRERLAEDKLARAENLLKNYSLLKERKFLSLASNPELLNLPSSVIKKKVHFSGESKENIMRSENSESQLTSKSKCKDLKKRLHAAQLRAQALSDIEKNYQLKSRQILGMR

[17] = target: Tyrosine-protein kinase Fyn (Homo sapiens, UniProt P06241); assay: Inhibition of Fyn (unknown origin) after 60 mins by TR-FRET assay
[18] = target: Insulin-like growth factor 1 receptor (Homo sapiens, UniProt P08069); assay: Inhibition of IGF1R (unknown origin) after 60 mins by TR-FRET assay
[19] = target: Cyclin-dependent kinase 8 (Homo sapiens, UniProt P49336); assay: Inhibition of CDK8 (unknown origin) after 60 mins by TR-FRET assay
[20] = target: Activated CDC42 kinase 1 (Homo sapiens, UniProt Q07912); assay: Inhibition of TNK2 (unknown origin) after 60 mins by TR-FRET assay
[21] = target: Calcium/calmodulin-dependent protein kinase type 1D (Homo sapiens, UniProt Q8IU85); assay: Inhibition of human CAMK1D (unknown origin) after 60 mins by TR-FRET assay
[22] = target: Focal adhesion kinase 1 (Homo sapiens, UniProt Q05397); assay: Inhibition of FAK (unknown origin) after 60 mins by TR-FRET assay
[23] = target: Proto-oncogene tyrosine-protein kinase receptor Ret (Homo sapiens, UniProt P07949); assay: Inhibition of RET (unknown origin) after 60 mins by TR-FRET assay
[24] = target: Vascular endothelial growth factor receptor 2 (Homo sapiens, UniProt P35968); assay: Inhibition of KDR (unknown origin) after 60 mins by TR-FRET assay

Chain of Platelet-derived growth factor receptor alpha (P16234 whole entry): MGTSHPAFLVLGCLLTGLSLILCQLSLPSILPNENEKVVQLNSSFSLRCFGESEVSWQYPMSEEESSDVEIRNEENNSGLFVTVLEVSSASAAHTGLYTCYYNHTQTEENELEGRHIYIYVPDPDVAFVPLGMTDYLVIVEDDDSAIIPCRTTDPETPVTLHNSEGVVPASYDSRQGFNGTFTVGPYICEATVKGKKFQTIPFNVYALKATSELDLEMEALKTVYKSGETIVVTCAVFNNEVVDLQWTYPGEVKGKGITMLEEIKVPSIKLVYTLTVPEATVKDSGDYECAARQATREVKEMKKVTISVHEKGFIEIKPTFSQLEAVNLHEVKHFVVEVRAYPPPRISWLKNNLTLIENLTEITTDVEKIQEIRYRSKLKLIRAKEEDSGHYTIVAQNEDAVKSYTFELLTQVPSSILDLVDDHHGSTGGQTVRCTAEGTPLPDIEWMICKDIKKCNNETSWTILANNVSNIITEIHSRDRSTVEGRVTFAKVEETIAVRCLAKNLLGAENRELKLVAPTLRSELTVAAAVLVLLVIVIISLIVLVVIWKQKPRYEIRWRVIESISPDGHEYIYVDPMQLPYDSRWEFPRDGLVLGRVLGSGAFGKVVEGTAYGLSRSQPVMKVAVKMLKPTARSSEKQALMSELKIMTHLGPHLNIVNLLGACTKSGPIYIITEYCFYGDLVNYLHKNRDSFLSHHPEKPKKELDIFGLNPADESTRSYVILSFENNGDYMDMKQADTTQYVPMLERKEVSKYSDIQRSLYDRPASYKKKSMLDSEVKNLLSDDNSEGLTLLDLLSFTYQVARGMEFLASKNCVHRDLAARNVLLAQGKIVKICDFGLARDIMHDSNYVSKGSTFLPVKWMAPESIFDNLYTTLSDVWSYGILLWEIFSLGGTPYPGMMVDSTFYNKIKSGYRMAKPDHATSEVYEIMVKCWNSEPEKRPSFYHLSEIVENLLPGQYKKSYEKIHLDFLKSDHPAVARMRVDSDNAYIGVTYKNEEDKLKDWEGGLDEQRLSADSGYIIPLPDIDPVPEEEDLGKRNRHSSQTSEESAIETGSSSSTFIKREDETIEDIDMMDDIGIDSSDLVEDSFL
Chain of Glycogen synthase kinase-3 alpha (P49840 whole entry): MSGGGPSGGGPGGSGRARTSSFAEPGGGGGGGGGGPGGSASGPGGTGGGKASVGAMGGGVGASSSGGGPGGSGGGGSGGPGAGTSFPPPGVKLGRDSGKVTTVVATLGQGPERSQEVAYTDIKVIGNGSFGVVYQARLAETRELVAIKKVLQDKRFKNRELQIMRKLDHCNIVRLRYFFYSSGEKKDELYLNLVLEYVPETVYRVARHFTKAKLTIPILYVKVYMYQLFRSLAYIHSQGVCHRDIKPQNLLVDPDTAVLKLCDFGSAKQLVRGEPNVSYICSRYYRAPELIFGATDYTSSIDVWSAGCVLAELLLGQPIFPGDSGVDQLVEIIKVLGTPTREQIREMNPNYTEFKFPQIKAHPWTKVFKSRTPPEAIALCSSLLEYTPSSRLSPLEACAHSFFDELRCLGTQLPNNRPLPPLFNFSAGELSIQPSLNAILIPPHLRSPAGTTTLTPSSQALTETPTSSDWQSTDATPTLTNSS
Chain of Calcium/calmodulin-dependent protein kinase type II subunit alpha (Q9UQM7 whole entry): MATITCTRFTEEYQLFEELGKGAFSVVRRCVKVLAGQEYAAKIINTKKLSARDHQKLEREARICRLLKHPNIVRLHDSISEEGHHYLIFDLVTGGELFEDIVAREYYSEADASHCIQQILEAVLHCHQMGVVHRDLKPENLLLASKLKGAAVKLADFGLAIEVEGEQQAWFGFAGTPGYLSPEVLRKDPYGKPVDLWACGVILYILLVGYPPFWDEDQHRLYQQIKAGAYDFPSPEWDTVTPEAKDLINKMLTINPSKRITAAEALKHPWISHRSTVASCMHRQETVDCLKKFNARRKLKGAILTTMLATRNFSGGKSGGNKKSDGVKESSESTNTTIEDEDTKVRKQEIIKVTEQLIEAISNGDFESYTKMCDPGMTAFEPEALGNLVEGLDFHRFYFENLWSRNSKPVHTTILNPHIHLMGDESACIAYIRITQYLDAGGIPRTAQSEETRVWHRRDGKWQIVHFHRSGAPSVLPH
Chain of Calcium/calmodulin-dependent protein kinase type 1D (Q8IU85 whole entry): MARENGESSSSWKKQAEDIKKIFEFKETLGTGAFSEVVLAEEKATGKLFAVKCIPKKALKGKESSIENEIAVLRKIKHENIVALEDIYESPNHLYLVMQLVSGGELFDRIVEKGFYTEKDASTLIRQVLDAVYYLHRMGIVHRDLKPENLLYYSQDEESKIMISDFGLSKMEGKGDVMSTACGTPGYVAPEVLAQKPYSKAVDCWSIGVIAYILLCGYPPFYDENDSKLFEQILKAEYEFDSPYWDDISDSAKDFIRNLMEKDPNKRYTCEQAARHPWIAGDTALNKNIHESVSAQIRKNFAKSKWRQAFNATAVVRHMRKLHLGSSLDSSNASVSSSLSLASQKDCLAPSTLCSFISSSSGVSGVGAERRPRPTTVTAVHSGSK
Chain of Focal adhesion kinase 1 (Q05397 whole entry): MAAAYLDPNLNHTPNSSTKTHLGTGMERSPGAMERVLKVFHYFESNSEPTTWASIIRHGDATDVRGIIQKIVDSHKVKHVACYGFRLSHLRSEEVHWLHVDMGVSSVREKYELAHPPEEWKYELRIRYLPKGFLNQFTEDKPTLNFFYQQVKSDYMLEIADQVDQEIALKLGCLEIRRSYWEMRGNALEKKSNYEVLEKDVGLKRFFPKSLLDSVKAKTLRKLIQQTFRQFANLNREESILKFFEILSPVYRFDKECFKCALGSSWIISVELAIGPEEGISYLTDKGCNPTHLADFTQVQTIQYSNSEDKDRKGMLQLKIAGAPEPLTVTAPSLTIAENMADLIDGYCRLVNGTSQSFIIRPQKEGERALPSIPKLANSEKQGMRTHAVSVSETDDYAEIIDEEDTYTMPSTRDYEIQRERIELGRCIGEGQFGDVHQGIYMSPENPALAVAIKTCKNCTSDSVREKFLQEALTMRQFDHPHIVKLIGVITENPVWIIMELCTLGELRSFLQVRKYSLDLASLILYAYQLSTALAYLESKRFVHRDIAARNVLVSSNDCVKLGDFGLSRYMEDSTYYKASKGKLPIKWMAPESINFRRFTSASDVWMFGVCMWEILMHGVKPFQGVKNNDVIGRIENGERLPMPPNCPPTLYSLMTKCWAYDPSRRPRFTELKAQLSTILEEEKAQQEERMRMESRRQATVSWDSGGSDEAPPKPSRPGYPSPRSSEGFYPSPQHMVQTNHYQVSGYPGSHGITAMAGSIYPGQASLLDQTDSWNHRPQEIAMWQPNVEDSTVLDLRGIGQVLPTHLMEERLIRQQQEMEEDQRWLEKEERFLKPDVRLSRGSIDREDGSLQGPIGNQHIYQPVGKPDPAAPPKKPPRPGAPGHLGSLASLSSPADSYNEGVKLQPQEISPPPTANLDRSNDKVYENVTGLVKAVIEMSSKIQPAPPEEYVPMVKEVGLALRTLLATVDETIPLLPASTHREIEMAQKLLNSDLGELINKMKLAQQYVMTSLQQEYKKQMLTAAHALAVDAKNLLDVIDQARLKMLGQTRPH
Chain of Vascular endothelial growth factor receptor 1 (P17948 whole entry): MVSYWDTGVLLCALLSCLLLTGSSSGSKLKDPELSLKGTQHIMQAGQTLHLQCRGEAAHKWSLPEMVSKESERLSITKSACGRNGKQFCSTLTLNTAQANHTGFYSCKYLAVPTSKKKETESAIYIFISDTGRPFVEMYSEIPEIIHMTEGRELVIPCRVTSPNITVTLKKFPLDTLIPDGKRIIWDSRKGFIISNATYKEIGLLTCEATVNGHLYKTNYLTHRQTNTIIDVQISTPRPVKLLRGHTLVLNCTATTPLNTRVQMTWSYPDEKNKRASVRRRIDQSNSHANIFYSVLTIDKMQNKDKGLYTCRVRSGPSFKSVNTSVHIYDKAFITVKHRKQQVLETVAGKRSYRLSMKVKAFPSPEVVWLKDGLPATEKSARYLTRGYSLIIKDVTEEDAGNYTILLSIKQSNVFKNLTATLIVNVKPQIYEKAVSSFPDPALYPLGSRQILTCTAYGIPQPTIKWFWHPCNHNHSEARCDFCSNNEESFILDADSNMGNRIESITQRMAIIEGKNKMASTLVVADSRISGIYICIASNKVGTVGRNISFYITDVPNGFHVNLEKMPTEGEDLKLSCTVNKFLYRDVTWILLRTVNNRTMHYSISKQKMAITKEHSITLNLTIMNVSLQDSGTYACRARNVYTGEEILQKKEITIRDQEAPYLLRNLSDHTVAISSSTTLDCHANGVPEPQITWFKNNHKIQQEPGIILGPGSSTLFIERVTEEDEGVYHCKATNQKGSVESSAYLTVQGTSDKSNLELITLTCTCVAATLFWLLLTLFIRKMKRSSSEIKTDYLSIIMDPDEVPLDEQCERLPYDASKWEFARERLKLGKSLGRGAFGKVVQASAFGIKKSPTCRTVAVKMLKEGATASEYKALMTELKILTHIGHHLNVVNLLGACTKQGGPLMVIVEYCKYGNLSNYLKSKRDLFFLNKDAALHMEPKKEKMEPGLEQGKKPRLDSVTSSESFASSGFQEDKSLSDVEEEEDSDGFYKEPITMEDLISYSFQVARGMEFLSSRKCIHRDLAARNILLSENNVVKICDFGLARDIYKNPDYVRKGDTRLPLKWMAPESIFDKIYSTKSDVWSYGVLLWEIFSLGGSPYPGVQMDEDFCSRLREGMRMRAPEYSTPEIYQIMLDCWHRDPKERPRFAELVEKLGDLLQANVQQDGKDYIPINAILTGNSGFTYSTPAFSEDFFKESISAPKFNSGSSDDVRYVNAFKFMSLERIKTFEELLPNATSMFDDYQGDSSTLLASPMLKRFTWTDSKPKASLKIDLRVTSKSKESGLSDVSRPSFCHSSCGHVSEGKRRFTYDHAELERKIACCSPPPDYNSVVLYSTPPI

| Structure (SMILES) | IC50 [1] [µM] | IC50 [2] [µM] | IC50 [3] [µM] | IC50 [4] [µM] | IC50 [5] [µM] | IC50 [6] [µM] | IC50 [7] [µM] | IC50 [8] [µM] | IC50 [9] [µM] | IC50 [10] [µM] | IC50 [11] [µM] | IC50 [12] [µM] | IC50 [13] [µM] | IC50 [14] [µM] | IC50 [15] [µM] | IC50 [16] [µM] | IC50 [18] [µM] | IC50 [19] [µM] | IC50 [20] [µM] | IC50 [21] [µM] | further results |
| --- | --- | --- | --- | --- | --- | --- | --- | --- | --- | --- | --- | --- | --- | --- | --- | --- | --- | --- | --- | --- | --- |
| Cc1n[nH]c2cc(Nc3nc(NC4CC4)c4occc4n3)ccc12 | > 10 | 7.54 | > 10 | > 10 | > 10 | > 10 | 4.98 | > 10 | > 10 | > 10 | > 10 | > 10 | > 10 | > 10 | > 10 | > 10 | > 10 | > 10 | 1.32 | > 10 | IC50 [17]: 5.96 µM |
| FC(F)(F)CNc1nc(Nc2ccc3cn[nH]c3c2)nc2ccoc12 | – | – | > 10 | > 10 | > 10 | > 10 | – | > 10 | > 10 | 8.61 | > 10 | > 10 | 9.36 | > 10 | – | > 10 | > 10 | 2.11 | 3.46 | > 10 | IC50 [22]: > 10 µM; IC50 [23]: 3.5 µM; IC50 [24]: > 10 µM |
| CC1(C)OCC(=O)Nc2cc(Nc3nc(NCC(F)(F)F)c4occc4n3)ccc21 | 0.379 | > 10 | 9.13 | > 10 | 5.19 | > 10 | > 10 | > 10 | > 10 | 5.78 | > 10 | 5.59 | > 10 | 4.05 | > 10 | > 10 | 6.02 | > 10 | 1.33 | > 10 | IC50 [22]: 5.5 µM; IC50 [23]: 0.379 µM; IC50 [17]: 0.201 µM; IC50 [24]: 3.35 µM |
| FC(F)(F)CNc1nc(Nc2ccc(N3CCOCC3)c(Cl)c2)nc2ccoc12 | 8.34 | > 10 | > 10 | > 10 | > 10 | > 10 | > 10 | > 10 | > 10 | > 10 | > 10 | > 10 | > 10 | > 10 | > 10 | > 10 | > 10 | > 10 | 4.02 | > 10 | IC50 [22]: > 10 µM; IC50 [23]: 1.51 µM; IC50 [17]: 1.51 µM; IC50 [24]: > 10 µM |
